Measured values as given in ChEMBL document CHEMBL1201862, “PubChem BioAssay data set” (2004).
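Compound exposure: 48 hours, 5 concentrations, 96-well plates. Here, GI50 denotes the concentration required for 50% inhibition of growth.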 Calls of active or inactive are those of the source. Cut-off read from the data, not from the text of the source: active = GI50 up to about 1.1 µM and inactive = higher.

Key:
Experiment in all cases: DTP human tumour cell line panel, 48 h
OVCAR-4 = test system: OVCAR-4
SF-295 = test system: SF-295
DU-145 = test system: DU-145
MOLT-4 = test system: MOLT-4
A498 = test system: A498
SNB-75 = test system: SNB-75
COLO 205 = test system: COLO 205
EKVX = test system: EKVX
CCRF-CEM = test system: CCRF-CEM
OVCAR-5 = test system: OVCAR-5
786-0 = test system: 786-0
PC-3 = test system: PC-3
HCT-15 = test system: HCT-15
SW-620 = test system: SW-620
U-251 = test system: U-251
IGROV-1 = test system: IGROV-1
HOP-62 = test system: HOP-62
SNB-19 = test system: SNB-19
SK-MEL-2 = test system: SK-MEL-2
UACC-62 = test system: UACC-62

| Compound | GI50 (OVCAR-4) | GI50 (SF-295) | GI50 (DU-145) | GI50 (MOLT-4) | GI50 (A498) | GI50 (SNB-75) | GI50 (COLO 205) | GI50 (EKVX) | GI50 (CCRF-CEM) | GI50 (OVCAR-5) | GI50 (786-0) | GI50 (PC-3) | GI50 (HCT-15) [µM] | GI50 (SW-620) | GI50 (U-251) | GI50 (IGROV-1) | GI50 (HOP-62) | GI50 (SNB-19) | GI50 (SK-MEL-2) | GI50 (UACC-62) |
| --- | --- | --- | --- | --- | --- | --- | --- | --- | --- | --- | --- | --- | --- | --- | --- | --- | --- | --- | --- | --- |
| Oc1nc2ccccc2c(O)c1Cc1ccccc1 | > 100 µM (inactive) | > 100 µM (inactive) | > 100 µM (inactive) | > 100 µM (inactive) | > 100 µM (inactive) | > 100 µM (inactive) | > 100 µM (inactive) | > 100 µM (inactive) | > 100 µM (inactive) | > 100 µM (inactive) | > 100 µM (inactive) | > 100 µM (inactive) | > 100 | > 100 µM (inactive) | > 100 µM (inactive) | > 100 µM (inactive) | > 100 µM (inactive) | > 100 µM (inactive) |  |  |
| Oc1ccc(C[C@@H]2CN[C@H](Cc3ccc(O)c(Br)c3)CN2)cc1 | > 100 µM (inactive) | > 100 µM (inactive) | > 100 µM (inactive) | > 100 µM (inactive) | > 100 µM (inactive) | > 100 µM (inactive) | > 100 µM (inactive) | > 100 µM (inactive) | > 100 µM (inactive) | > 100 µM (inactive) | > 100 µM (inactive) | > 100 µM (inactive) | > 100 | > 100 µM (inactive) | > 100 µM (inactive) | > 100 µM (inactive) | > 100 µM (inactive) |  | > 100 µM (inactive) | > 100 µM (inactive) |
| [N-]=[N+]=NC1=C(c2ccccn2)C(=O)c2cccc3cccc1c23 | 31.1 µM (inactive) | 42.5 µM (inactive) | 39.7 µM (inactive) | 1.77 µM (inactive) | 5.48 µM (inactive) | 29 µM (inactive) | 76.9 µM (inactive) |  | 7.03 µM (inactive) | 79.6 µM (inactive) | 25.2 µM (inactive) | 39.3 µM (inactive) | 29 | 22.9 µM (inactive) | 29.2 µM (inactive) | 14.8 µM (inactive) | 19.7 µM (inactive) | 28.6 µM (inactive) | 43.5 µM (inactive) | 20 µM (inactive) |
| Nc1ncc(Br)c(NCC2(CO)CCC2)n1 | > 100 µM (inactive) | 97.1 µM (inactive) | 81.3 µM (inactive) | 80 µM (inactive) | 35.6 µM (inactive) | > 100 µM (inactive) | > 100 µM (inactive) | 58.5 µM (inactive) | > 100 µM (inactive) | 20.7 µM (inactive) | > 100 µM (inactive) | > 100 µM (inactive) | > 100 | > 100 µM (inactive) | > 100 µM (inactive) | > 100 µM (inactive) | > 100 µM (inactive) |  | > 100 µM (inactive) | > 100 µM (inactive) |
| COC(=O)C1CC(C=O)=C(SC)N1 (centres undefined) | > 50 µM (inactive) | > 50 µM (inactive) | > 50 µM (inactive) | > 50 µM (inactive) | > 50 µM (inactive) | > 50 µM (inactive) | > 50 µM (inactive) | > 50 µM (inactive) |  | > 50 µM (inactive) | > 50 µM (inactive) | > 50 µM (inactive) | > 50 | > 50 µM (inactive) | > 50 µM (inactive) | > 50 µM (inactive) | > 50 µM (inactive) | > 50 µM (inactive) | > 50 µM (inactive) | > 50 µM (inactive) |
| CCc1nn(S(=O)(=O)c2ccc(C)cc2)c2c1CS(=O)(=O)CC2 | > 100 µM (inactive) | 66.8 µM (inactive) | > 100 µM (inactive) | > 100 µM (inactive) | > 100 µM (inactive) | > 100 µM (inactive) | > 100 µM (inactive) | 89.7 µM (inactive) |  | > 100 µM (inactive) | > 100 µM (inactive) | > 100 µM (inactive) | > 100 | > 100 µM (inactive) | > 100 µM (inactive) |  | 84.1 µM (inactive) | > 100 µM (inactive) | > 100 µM (inactive) | > 100 µM (inactive) |
| CSc1nc(NC(C)C)c2c(n1)Sc1nc3ccccc3n1N=C2 | 3.85 µM (inactive) | 6.03 µM (inactive) | 12.7 µM (inactive) | 9.84 µM (inactive) | 3.09 µM (inactive) |  | 7.69 µM (inactive) | 21.1 µM (inactive) | 6.58 µM (inactive) | 31.3 µM (inactive) | 4.23 µM (inactive) | 19.5 µM (inactive) | 36.8 | 13.1 µM (inactive) | 11.5 µM (inactive) | 16.9 µM (inactive) | 5.66 µM (inactive) | 7.57 µM (inactive) | 17.9 µM (inactive) | 6.62 µM (inactive) |
| CC(C)=c1sc(=C(C)C)c2c1=NC(C)(C)N=2 | > 100 µM (inactive) | 75.5 µM (inactive) | 58.3 µM (inactive) | 42.4 µM (inactive) | 87.5 µM (inactive) |  | 87.3 µM (inactive) | 57.9 µM (inactive) | 44.3 µM (inactive) | 36.5 µM (inactive) | > 100 µM (inactive) | 45.9 µM (inactive) | 47.8 | 72.6 µM (inactive) | 46 µM (inactive) | 42.1 µM (inactive) | > 100 µM (inactive) | > 100 µM (inactive) | 26.7 µM (inactive) | 37.4 µM (inactive) |
| COc1cc(NS(C)(=O)=O)ccc1N1Cc2c[nH]c3ccc4nccc1c4c23 | 61.2 µM (inactive) | 41.5 µM (inactive) | 42.5 µM (inactive) | 22.3 µM (inactive) | 38.5 µM (inactive) |  | 26.7 µM (inactive) | > 100 µM (inactive) | 25.5 µM (inactive) | 30 µM (inactive) | 30.8 µM (inactive) | 29.6 µM (inactive) | > 100 | 32.1 µM (inactive) | 36.5 µM (inactive) | 36.3 µM (inactive) | 54.2 µM (inactive) | 34.7 µM (inactive) | 21.6 µM (inactive) | 67.8 µM (inactive) |
| CC(=O)/C(=C\n1c(=S)[nH]c2ccc([N+](=O)[O-])cc21)C(=O)Nc1ccccc1C | > 100 µM (inactive) | > 100 µM (inactive) | > 100 µM (inactive) | > 100 µM (inactive) | 96.8 µM (inactive) |  | > 100 µM (inactive) | > 100 µM (inactive) | > 100 µM (inactive) | > 100 µM (inactive) | > 100 µM (inactive) | > 100 µM (inactive) | > 100 | > 100 µM (inactive) | > 100 µM (inactive) | > 100 µM (inactive) | > 100 µM (inactive) |  | > 100 µM (inactive) | > 100 µM (inactive) |
| COc1ccc(CC2c3cc(OC)c(OC)c(OC)c3CC[N+]2(C)C)cc1Oc1ccc(CC2c3cc4c(c(OC)c3CCN2C)OCO4)cc1 (centres undefined) | > 100 µM (inactive) | > 100 µM (inactive) | > 100 µM (inactive) | > 100 µM (inactive) | > 100 µM (inactive) | > 100 µM (inactive) | > 100 µM (inactive) | > 100 µM (inactive) |  | > 100 µM (inactive) | > 100 µM (inactive) | > 100 µM (inactive) | > 100 | > 100 µM (inactive) | > 100 µM (inactive) | > 100 µM (inactive) |  | > 100 µM (inactive) | > 100 µM (inactive) | > 100 µM (inactive) |
| CCOC(=O)C1=C(C)N(c2ccc(Cl)cc2)C2(O)C=CC(O)=C3C(=O)c4ccccc4C(=O)C312 (centres undefined) | 3.97 µM (inactive) | 6.93 µM (inactive) | 8.09 µM (inactive) | 2.43 µM (inactive) | 15.2 µM (inactive) |  | 3.72 µM (inactive) | 4.36 µM (inactive) | 2.34 µM (inactive) | 12.9 µM (inactive) | 2.12 µM (inactive) | 3.34 µM (inactive) | 2.12 | 4.08 µM (inactive) | 3.59 µM (inactive) | 3.94 µM (inactive) | 5.2 µM (inactive) | 12.9 µM (inactive) | 4.32 µM (inactive) | 3.44 µM (inactive) |
| CCOP(=O)(C[S+](C)[O-])O[C@@H]1C[C@H](C)CC[C@H]1C(C)C (some centres undefined) | 15 µM (inactive) | 5.6 µM (inactive) | 6.37 µM (inactive) | 5.18 µM (inactive) |  | 7.28 µM (inactive) | 6.19 µM (inactive) | 3.33 µM (inactive) | 2.43 µM (inactive) | 4.28 µM (inactive) | 2.73 µM (inactive) | 6.61 µM (inactive) | 2.71 | 3.72 µM (inactive) | 4.59 µM (inactive) | 3.25 µM (inactive) | 5.53 µM (inactive) | 12.2 µM (inactive) | 4.47 µM (inactive) | 2.17 µM (inactive) |
| NC1c2c(Cl)sc(Cl)c2C(=O)C1O (centres undefined) | 17.2 µM (inactive) | 32.6 µM (inactive) | > 100 µM (inactive) | 23 µM (inactive) | > 100 µM (inactive) | 33.6 µM (inactive) | 18.2 µM (inactive) | 21.6 µM (inactive) | 19 µM (inactive) | > 100 µM (inactive) | 94.6 µM (inactive) | > 100 µM (inactive) | 16.5 | 17.4 µM (inactive) | 21.2 µM (inactive) | 57.9 µM (inactive) |  | 41.3 µM (inactive) | 73.8 µM (inactive) | 17.7 µM (inactive) |
| CC1OC(=O)C(C(C)C)NC(=O)C(C(C)C)OC(=O)C(C(C)C)NC(=O)C(C)OC(=O)C(C(C)C)NC(=O)C(C(C)C)OC(=O)C(C(C)C)NC(=O)C(C)OC(=O)C(C(C)C)NC(=O)C(C(C)C)OC(=O)C(C(C)C)NC1=O (centres undefined) |  |  | 0.000102 µM (active) | 0.0025 µM (active) | 0.0025 µM (active) | 0.00301 µM (active) | 0.0025 µM (active) | 0.0198 µM (active) | 0.0032 µM (active) |  | < 0.0001 µM (active) | < 0.0001 µM (active) | 0.0034 | 0.0025 µM (active) | 0.0025 µM (active) | 0.00275 µM (active) | 0.0025 µM (active) | 0.00349 µM (active) | 0.00288 µM (active) | 0.0025 µM (active) |
